Experimental data reported in US11959083B2, “Immunosuppression-reverting oligonucleotides inhibiting the expression of CD39” (Secarna Pharmaceuticals GmbH & Co. KG, priority 2016, dated 2024).
l = locked nucleic acid (LNA); d = 2'-deoxy (DNA)

Columns and labels:
[1] = tested on: hCD39 protein; assay: Concentration- and time-dependent hCD39 protein knockdown in HDLM-2 cells (flow cytometry); type: cell-based, human; settings: for inhibition of hCD39 protein: HDLM-2 cells, three, four and six days, different concentrations; for Inhibition [%] (Protein/mRNA): HDLM-2, CD39 protein
Protocol: FIG. 8 depicts concentration- and time-dependent CD39 protein knockdown by A04040H (SEQ ID No. 3) and A04045H (SEQ ID No. 4). Analysis of CD39 protein expression by flow cytometry in HDML-2 cells is given after treatment with the indicated antisense oligonucleotides for 3, 4 and 6 days. As treatment control, cells were treated with neg1 for 3, 4 and 6 days at the indicated concentrations. Relative expression compared to untreated control cells (=1) is depicted.
HDLM-2 cells were therefore treated with different concentrations of the respective antisense oligonucleotide for three, four and six days, respectively. Protein expression was analyzed by flow cytometry using the CD39 antibody (clone A1) and 7-AAD to investigate viability. […] Table 13summarizes protein knockdown efficiency of the selected human CD39 antisense oligonucleotides A04040H (SEQ ID No. 3) and A04045H (SEQ ID No. 4) in HDLM-2 cells at different time points: […]

[2] = tested on: hCD39 mRNA; assay: hCD39 mRNA knockdown efficacy screen in A-172 cells (single dose, gymnotic delivery, QuantiGene Singleplex); type: cell-based, human; settings: 10 μM; for Mean hCD39 mRNA expression (relative to untreated cells set as 1): first screening round; for Mean hCD39 mRNA expression (relative to untreated cells set as 1) / Relative hCD39 mRNA expression (compared to non-treated cells): normalized to HPRT1; for Relative hCD39 mRNA expression (compared to non-treated cells): second screening round
Outline: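 Antisense oligonucleotides given once at 10 μM without transfection reagent (gymnotic) to HDLM-2 or A-172 cells for 3 days. hCD39 mRNA measured by QuantiGene Singleplex, normalized to HPRT1 and expressed relative to untreated cells; triplicate means.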

Substance | inhibition of hCD39 protein [1] | influence on the expression of hCD39 [2] | Mean hCD39 mRNA expression (relative to untreated cells set as 1) ([2]; 3 days) | Relative hCD39 mRNA expression (compared to non-treated cells) ([2]; 3 days) | Inhibition [%] (Protein/mRNA) ([1]; Day 3, 0.1 μM) | Inhibition [%] (Protein/mRNA) ([1]; Day 3, 0.5 μM) | Inhibition [%] (Protein/mRNA) ([1]; Day 3, 1 μM) | Inhibition [%] (Protein/mRNA) ([1]; Day 3, 10 μM) | Inhibition [%] (Protein/mRNA) ([1]; Day 4, 0.1 μM) | Inhibition [%] (Protein/mRNA) ([1]; Day 4, 0.5 μM) | Inhibition [%] (Protein/mRNA) ([1]; Day 4, 1 μM) | Inhibition [%] (Protein/mRNA) ([1]; Day 4, 10 μM) | Inhibition [%] (Protein/mRNA) ([1]; Day 6, 0.1 μM) | Inhibition [%] (Protein/mRNA) ([1]; Day 6, 0.5 μM) | Inhibition [%] (Protein/mRNA) ([1]; Day 6, 1 μM) | Inhibition [%] (Protein/mRNA) ([1]; Day 6, 10 μM) | Residual hCD39 mRNA expression relative to untreated cells (set as 1) ([2]; 3 days, third screening round)
+C*+G*+T*T*T*A*G*G*C*T*A*T*G*T*A*+C*+T*+T (CGTTTAGGCTATGTACTT; chemistry not fully specified) [neg1, negative control antisense oligonucleotide not hybridizing with CD39, described in WO2014154843 A1, reference compound] | no inhibitory effect | no negative influence on the expression of hCD39 | 1.36 | 0.79 |  |  |  |  |  |  |  |  |  |  |  |  | 
+G*+T*+T*T*G*T*G*T*G*A*G*A*G*C*+T*+T (antisense GTTTGTGTGAGAGCTT; sugars from the 5' end l3 d11 l2, all phosphorothioate, methylation of C not given here) [A04040H] | potent inhibition of hCD39 protein after all indicated time points |  | 0.07 | 0.04 | 46.73 | 54.75 | 60.56 | 61.36 | 70.73 | 78.25 | 76.96 | 79.11 | 87.37 | 89.36 | 84.12 | 88.84 | 0.05
